In patent US20150368242A1, “NOVEL TETRAHYDROPYRIDOPYRIMIDINONE DERIVATIVE” (Ajinomoto Co., Inc., priority 2013, published 2015):
pIC50: −log10 of the molar value. Counter-ions that a name gives are not always drawn. Like-named read-outs stand apart in the source and are kept apart here.

Target: T1, recombinant human MGAT2 enzyme (Homo sapiens, UniProt Q3SYC2)
T1 construct: made in house; host or cells: CHO-K1 (Jump-In CHO-K1 Kit, Life Technologies); microsomal fraction used as the enzyme solution
T1 sequence (Q3SYC2 whole entry): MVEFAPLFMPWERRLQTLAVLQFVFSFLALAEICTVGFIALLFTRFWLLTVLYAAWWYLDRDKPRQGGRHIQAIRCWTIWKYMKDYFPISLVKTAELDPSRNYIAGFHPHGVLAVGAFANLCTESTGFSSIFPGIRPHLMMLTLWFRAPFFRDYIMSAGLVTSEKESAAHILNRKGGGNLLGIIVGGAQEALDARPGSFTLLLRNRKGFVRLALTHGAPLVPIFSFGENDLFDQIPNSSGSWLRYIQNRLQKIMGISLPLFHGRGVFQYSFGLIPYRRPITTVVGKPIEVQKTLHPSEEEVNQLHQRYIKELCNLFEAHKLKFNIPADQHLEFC
Assay: Test for human MGAT2 activity inhibitory action (14C-oleoyl CoA, recombinant enzyme microsomes)
Assay type: biochemical
Set-up: key to Potency relative to Comparative Example 1 (higher = more potent): % inhibition = {1−(C−B)/(A−B)}×100, B = 10 μM Comparative Example 1
Conditions: for pIC50: read-out: IC50
Protocol: The human MGAT2 gene described in Am. J. Physiol. Endocrinol. Metab. 285: E927-E937, 2003 was expressed using Jump-In™ CHO-K1 Kit (Life technologies) as described in the attached manual. The cells were suspended in a buffer containing Tris-hydrochloric acid (pH 7.4) at a final concentration of 1 mM, 1 mM ethylenediaminetetraacetic acid, 1 mM dithiothreitol, 250 mM sucrose, and complete protease inhibitor cocktail (Roche applied Science), and then disrupted using a Teflon homogenizer (AS ONE Corporation), followed by centrifugation at 130 g for 10 minutes. The supernatant was further centrifuged at 100,000 g for 1 hour to obtain a pellet as microsomes containing the recombinant enzyme, and a solution obtained by suspending this pellet at a protein concentration of about 800 to 1900 μg/ml was used as an MGAT recombinant enzyme solution.
To a buffer containing 50 mM Tris-hydrochloric acid (pH 7.4), 6 mM magnesium chloride, and 2 mg/mL bovine serum albumin, a test compound was added, and the final concentration of dimethyl sulfoxide was adjusted to 0.3%. Moreover, 2-monooleoyl glycerol, oleoyl CoA, 1-^14C-oleoyl CoA (Perkin Elmer), and orlistat (SIGMA) were added at final concentrations of 50 μM, 50 μM, 2.2 μM, and 8.3 μM, respectively, followed by incubation at 37° C. for 10 minutes. After 10 minutes, the recombinant human MGAT2 enzyme solution was added at a final concentration of 0.67 μg/mL, and the reaction was started, with the amount of the reaction solution being 150 μl. The reaction was carried out at 37° C. for 30 minutes.
After 30 minutes, the reaction was stopped by adding 300 μl of isopropanol:heptane:water=(80:20:2) to the reaction liquid. Further, 200 μl of heptane and 100 μl of water were added, followed by stirring. Then, 100 μl of the upper layer was transferred to a 96-well plate (Corning), and mixed with 100 μl of liquid scintillator (LumaSafe Plus, Lumac). Then, the ^14C count was quantitatively determined using TopCount NXT™ microplate scintillation luminescence counter (Perkin Elmer).
The ^14C count in a case where no test compound was added was defined as A, the ^14C count in a case where 10 μM of the compound (Comparative Example 1) of Example No. 8 of WO2008/038768 was added was defined as B, and the ^14C count in the case where the test compound was added was taken as C. For this case, {1−(C−B)/(A−B)}×100(%) was calculated as the human MGAT2 activity inhibition ratio of the test compound (shown in the column named vs Comp. Ex. 1 in the following Table). A greater value of the “vs Comparative Example 1” means that the MGAT2 activity inhibitory action of the compound of Example was higher as compared to the MGAT2 activity inhibitory action of the compound of Comparative Example 1 (i.e., the human MGAT2 activity inhibition ratio was higher). […] Since this evaluation test was conducted for two separate groups, the test results of the two groups are shown separately in Table (First Test) and Table 4 (Second Test).
Next, the compounds of Examples 25 to 60 of the present invention were also investigated for their pharmacological action by using the same method as in Examples 1 to 24. […] Note that, a comparative evaluation test against the compound of Comparative Example 1 was conducted for each of the compounds of Examples (in every measurement of the inhibitory activity of the compounds of Examples 25 to 60, the inhibitory activity of the compound of Comparative Example 1 was measured). The 50% inhibition concentrations of Comparative Example 1 in the measurement of the inhibitory activities of the compounds of Examples 25 to 60 were shown in Table 5 as “IC50 (nM) of Comparative Example 1.”

[1] = Second Test (Table 4), relative to Comparative Example 1
[2] = Table 5, Examples 25 to 60, same method
[3] = Table 5, relative to Comparative Example 1 measured in the same run

pIC50 (Second Test (Table 4)) | Potency relative to Comparative Example 1 (higher = more potent) [1] | pIC50 [2] | Potency relative to Comparative Example 1 (higher = more potent) [3] | Compound
8.92 | 246 | – | – | O=C(CCNCc1cc2ccccc2[nH]1)N1CCc2nc(SC3CCC3)n(-c3ccccc3)c(=O)c2C1 [Example 21, 2-cyclobutylsulfanyl-6-[3-(1H-indol-2-ylmethylamino)propanoyl]-3-phenyl-7,8-dihydro-5H-pyrido[4,3-d]pyrimidin-4-one trifluoroacetate]
8.42 | 79 | – | – | O=C(CCCNCc1ccc(C(F)(F)F)cc1)N1CCc2nc(SC3CCC3)n(-c3ccccc3)c(=O)c2C1 [Example 22, 2-cyclobutylsulfanyl-3-phenyl-6-[4-[[4-trifluoromethyl)phenyl]methylamino]butanoyl]-7,8-dihydro-5H-pyrido[4,3-d]pyrimidin-4-one trifluoroacetate]
8.80 | 193 | – | – | O=C(CCNCCc1c[nH]c2ccccc12)N1CCc2nc(SC3CCC3)n(-c3ccccc3)c(=O)c2C1 [Example 23, 2-cyclobutylsulfanyl-6-[3-[2-(1H-indol-3-yl)ethylamino]propanoyl]-3-phenyl-7,8-dihydro-5H-pyrido[4,3-d]pyrimidin-4-one trifluoroacetate)]
8.85 | 221 | – | – | O=C(CCNCc1ccc(OC(F)(F)F)cc1)N1CCc2nc(SC3CCC3)n(-c3ccccc3)c(=O)c2C1 [Example 24, 2-cyclobutylsulfanyl-3-phenyl-6-[3-[[4-(trifluoromethoxy)phenyl]methylamino]propanoyl]-7,8-dihydro-5H-pyrido[4,3-d]pyrimidin-4-one trifluoroacetate)]
– | – | 8.66 | 111 | [2H]c1c([2H])c([2H])c(C([2H])([2H])NCCC(=O)N2CCc3nc(SC4CCC4)n(-c4ccccc4)c(=O)c3C2)c([2H])c1[2H] [Example 25, 2-cyclobutylsulfanyl-6-[3-[[dideuterio-(2,3,4,5,6-pentadeuteriophenyl)methyl]amino]propanoyl]-3-phenyl-7,8-dihydro-5H-pyrido[4,3-d]pyrimidin-4-one trifluoroacetate]
– | – | 9.00 | 196 | Cc1cc2cccc(CNCCC(=O)N3CCc4nc(SC5CCC5)n(-c5ccccc5)c(=O)c4C3)c2o1 [Example 26, 2-cyclobutylsulfanyl-6-[3-[(2-methylbenzofuran-7-yl)methylamino]propanoyl]-3-phenyl-7,8-dihydro-5H-pyrido[4,3-d]pyrimidin-4-one trifluoroacetate]
– | – | 8.77 | 125 | O=C(CCNCc1ccc2c(c1)OCO2)N1CCc2nc(SC3CCC3)n(-c3ccccc3)c(=O)c2C1 [Example 28, 6-[3-(1,3-benzodioxol-5-ylmethylamino)propanoyl]-2-cyclobutylsulfanyl-3-phenyl-7,8-dihydro-5H-pyrido[4,3-d]pyrimidin-4-one trifluoroacetate]
– | – | 8.82 | 138 | O=C(CCNCC(O)c1ccccc1)N1CCc2nc(SC3CCC3)n(-c3ccccc3)c(=O)c2C1 (stereo not drawn) [Example 29, 2-cyclobutylsulfanyl-6-[3-[(2-hydroxy-2-phenyl-ethyl)amino]propanoyl]-3-phenyl-7,8-dihydro-5H-pyrido[4,3-d]pyrimidin-4-one trifluoroacetate]
– | – | 8.52 | 69 | O=C(CCNCCc1ccc(O)cc1)N1CCc2nc(SC3CCC3)n(-c3ccccc3)c(=O)c2C1 [Example 30, 2-cyclobutylsulfanyl-6-[3-[2-(4-hydroxyphenyl)ethylamino]propanoyl]-3-phenyl-7,8-dihydro-5H-pyrido[4,3-d]pyrimidin-4-one trifluoroacetate]
– | – | 8.80 | 130 | CN(C)c1ccc(CNCCC(=O)N2CCc3nc(SC4CCC4)n(-c4ccccc4)c(=O)c3C2)cc1 [Example 31, 2-cyclobutylsulfanyl-6-[3-[(4-dimethylaminophenyl)methylamino]propanoyl]-3-phenyl-7,8-dihydro-5H-pyrido[4,3-d]pyrimidin-4-one trifluoroacetate]
– | – | 8.89 | 166 | O=C(CCNCc1ccc2c(c1)CCO2)N1CCc2nc(SC3CCC3)n(-c3ccccc3)c(=O)c2C1 [Example 32, 2-cyclobutylsulfanyl-6-[3-(2,6-dihydrobenzofuran-5-ylmethylamino)propanoyl]-3-phenyl-7,8-dihydro-5H-pyrido[4,3-d]pyrimidin-4-one trifluoroacetate]
– | – | 9.10 | 228 | O=C(CCNCCCCCOc1ccc(C(F)(F)F)cc1)N1CCc2nc(SC3CCC3)n(-c3ccccc3)c(=O)c2C1 [Example 33, 2-cyclobutylsulfanyl-3-phenyl-6-[3-[5-[4-(trifluoromethyl)phenoxy]pentylamino]propanoyl]-7,8-dihydro-5H-pyrido[4,3-d]pyrimidin-4-one trifluoroacetate]
– | – | 8.49 | 47 | O=C(CCNCc1nc(Cc2ccccc2)no1)N1CCc2nc(SC3CCC3)n(-c3ccccc3)c(=O)c2C1 [Example 34, 6-[3-[(3-benzyl-1,2,4-oxadiazol-5-yl)methylamino]propanoyl]-2-cyclobutylsulfanyl-3-phenyl-7,8-dihydro-5H-pyrido[4,3-d]pyrimidin-4-one trifluoroacetate]
– | – | 8.96 | 130 | O=C(CCNCc1c(F)cccc1F)N1CCc2nc(SC3CCC3)n(-c3ccccc3)c(=O)c2C1 [Example 35, 2-cyclobutylsulfanyl-6-[3-[(2,6-difluorophenyl)methylamino]propanoyl]-3-phenyl-7,8-dihydro-5H-pyrido[4,3-d]pyrimidin-4-one trifluoroacetate]
– | – | 9.15 | 205 | C[C@@H](CNCCC(=O)N1CCc2nc(SC3CCC3)n(-c3ccccc3)c(=O)c2C1)c1ccccc1 [Example 36]
– | – | 9.30 | 273 | C[C@H](CNCCC(=O)N1CCc2nc(SC3CCC3)n(-c3ccccc3)c(=O)c2C1)c1ccccc1 [Example 37, 2-cyclobutylsulfanyl-3-phenyl-6-[3-[[(2S)-2-phenylpropyl]amino]propanoyl]-7,8-dihydro-5H-pyrido[4,3-d]pyrimidin-4-one trifluoroacetate]
– | – | 8.85 | 211 | O=C(CCNCCNc1ccccc1)N1CCc2nc(SC3CCC3)n(-c3ccccc3)c(=O)c2C1 [Example 38, 6-[3-(2-aminolinoethylamino)propanoyl]-2-cyclobutylsulfanyl-3-phenyl-7,8-dihydro-5H-pyrido[4,3-d]pyrimidin-4-one trifluoroacetate]
– | – | 9.40 | 320 | O=C(CCNCC1CCCC(C(F)(F)F)C1)N1CCc2nc(SC3CCC3)n(-c3ccccc3)c(=O)c2C1 (stereo not drawn) [Example 39, 2-cyclobutylsulfanyl-3-phenyl-6-[3-[[3-(trifluoromethyl)cyclohexyl]methylamino]propanoyl]-7,8-dihydro-5H-pyrido[4,3-d]pyrimidin-4-one trifluoroacetate]
